Source: patent US20250163021A1, “2-METHYL-4-PHENYLPIPERIDIN-4-OL DERIVATIVES AS INHIBITORS OF APOL1 AND METHODS OF USING SAME” (Vertex Pharmaceuticals Incorporated, priority 2022, published 2025)

These compounds were tested against T1, APOL1 (Homo sapiens, UniProt O14791) (assay: MultiTox-Fluor Multiplex Cytotoxicity Assay in tet-inducible APOL1 T-REx-HEK293 cells). Details: tet-inducible transgenic APOL1 T-REx-HEK293 cells, 50 ng/mL tet, 24 hours; ratio of dead to live cells; APOL1 variant (G0/G1/G2) not stated; read-out: IP50 (nM) (i.e., IC50 for cell proliferation).
T1 sequence (O14791 1-398 S342G/I384M): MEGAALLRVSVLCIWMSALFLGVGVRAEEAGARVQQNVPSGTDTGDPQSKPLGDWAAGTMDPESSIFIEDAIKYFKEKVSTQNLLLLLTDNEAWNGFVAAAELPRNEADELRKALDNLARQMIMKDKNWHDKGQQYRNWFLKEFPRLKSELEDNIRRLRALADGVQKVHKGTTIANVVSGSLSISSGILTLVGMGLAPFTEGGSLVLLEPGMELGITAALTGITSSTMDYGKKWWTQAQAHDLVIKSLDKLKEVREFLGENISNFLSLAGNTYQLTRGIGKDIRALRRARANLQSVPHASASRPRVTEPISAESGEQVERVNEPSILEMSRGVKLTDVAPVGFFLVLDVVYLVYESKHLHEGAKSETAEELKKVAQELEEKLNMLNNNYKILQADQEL
Assay type: cell-based
Procedure: The MultiTox-Fluor Multiplex Cytotoxicity Assay is a single-reagent-addition, homogeneous, fluorescence assay that measures the number of live and dead cells simultaneously in culture wells. The assay measures cell viability and cytotoxicity by detecting two distinct protease activities. The live-cell protease activity is restricted to intact viable cells and is measured using a fluorogenic, cell-permeant peptide glycyl-phenylalanylamino fluorocoumarin (GF-AFC) substrate. The substrate enters intact cells, where it is cleaved to generate a fluorescent signal proportional to the number of living cells. […] A second, cell-impermeant, fluorogenic peptide substrate (bis-AAF-R^110 Substrate) is used to measure dead-cell protease that has been released from cells that have lost membrane integrity. A ratio of dead to live cells is used to normalize data.
Briefly, the tet-inducible transgenic APOL1 T-REx-HEK293 cell lines were incubated with 50 ng/mL tet to induce APOL1 in the presence of 3-(2-(4-fluorophenyl)-1H-indol-3-yl)-N-((3S,4R)-4-hydroxy-2-oxopyrrolidin-3-yl)propenamide at 10.03, 3.24, 1.13, 0.356, 0.129, 0.042, 0.129, 0.0045, 0.0015, 0.0005 μM in duplicate for 24 hours in a humidified 37° C. incubator. The MultiTox reagent was added to each well and placed back in the incubator for an additional 30 minutes. The plate was read on the EnVision plate reader. A ratio of dead to live cells was used to normalize, and data was imported, analyzed, and fit using Genedata Screener (Basel, Switzerland) software. Data was normalized using percent of control, no tet (100% viability), and 50 ng/mL tet treated (0% viability),and fit using Smart Fit. The reagents, methods, and complete protocol for the MultiTox assay are described below.
Human embryonic kidney (HEK293) cell lines containing a tet-inducible expression system (T-REx™; Invitrogen, Carlsbad, CA) and Adeno-associated virus site 1 pAAVS1-Puro-APOL1 G0 or pAAVS1-Puro-APOL1 G1 or pAAVS1-Puro-APOL1 G2 Clones G0 DC2.13, G1 DC3.25, and G2 DC4.44 were grown in a T-225 flask at ˜90% confluency in cell growth media (DMEM, 10% Tet-free FBS, 2 mM L-glutamine, 100 Units/mL penicillin-streptomycin, 5 μg/mL blasticidin S HCl, 1 μg/mL puromycin dihydrochloride). Cells were washed with DPBS and then trypsinized to dissociate from the flask. Media was used to quench the trypsin, cells were then pelleted at 200 g and resuspended in fresh cell assay media (DMEM, 2% Tet-free FBS, 2 mM L-glutamine, 100 Units/mL penicillin-streptomycin). Cells were counted and diluted to 1.17×10^6 cells/mL. 20 μL of cells (23,400/well) were dispensed in every well of a 384-well Poly-D-Lysine coated plate using the Multidrop dispenser. The plates were then incubated at room temperature for one hour.
Tetracycline is needed to induce APOL1 expression. 1 mg/mL tet stock in water was diluted to 250 ng/mL (5×) in cell assay media. 60 μL of cell assay media (no tet control) was dispensed in columns 1 and 24, and 60 μL of 5× tet in 384-PP-round bottom plate was dispensed in columns 2 to 23 with the Multidrop dispenser.
Assay ready plates from the Global Compound Archive were ordered using template 384_APOL1Cell_DR10n2_50 μM_v3. Compounds were dispensed at 200 nL in DMSO. The final top concentration was 10 μM with a 10 point 3-fold dilution in duplicate in the MultiTox assay.
20 μL was transferred from the 5× tet plate to the ARP and mixed, then 5 μL of 5× tet and the compounds were transferred to the cell plate and mixed using the Bravo. The cell plate was placed in the humidified 37° C. 5% CO2 incubator for 24 hours.
The MultiTox-Fluor Multiplex Cytotoxicity Assay was performed in accordance with the manufacturer's protocol. After cells were incubated with tet and compound for 24 hours, 25 μL of 1× MultiTox reagent was added to each well using the Multidrop dispenser; the plates were placed on a plate shaker (600 rpm) for 2 minutes, then centrifuged briefly and placed back in the 37° C. incubator for 30 minutes. […]

`Cc1cccc([C@@]2(O)CCN(Cc3ccc4c(c3)n(C)c(=O)n4C)[C@@H](C)C2)c1` [Compound 1, 5-[[(2S,4R)-4-hydroxy-2-methyl-4-(m-tolyl)-1-piperidyl]methyl]-1,3-dimethyl-benzimidazol-2-one] and `C[C@H]1C[C@@](O)(c2cccc(Cl)c2)CCN1Cc1ccc2c(c1)n(C)c(=O)n2C` [Compound 4] cannot be ordered by IC50: 100 to 500 nM for the first, at most 100 nM for the second.

First: C[C@H]1C[C@@](O)(c2ccccc2)CCN1Cc1ccc2c(c1)n(C)c(=O)n2C [Compound 2]
Second: C[C@@H]1C[C@](O)(c2ccccc2)CCN1Cc1ccc2c(c1)n(C)c(=O)n2C [Compound 3]
The IC50 of the first is lower: 100 to 500 nM for the first, 500 to 5000 nM for the second. The first is the more potent here.

`C[C@H]1CC(O)(c2cccc(C(F)(F)F)c2)CCN1Cc1ccc2c(c1)n(C)c(=O)n2C` (some centres unmarked) [Compound 5] and `C[C@@H]1C[C@](O)(c2cccc(F)c2)CCN1Cc1ccc2c(c1)n(C)c(=O)n2C` [Compound 11] fall in the same range of IC50: 100 to 500 nM for the first, 100 to 500 nM for the second.

First: C[C@H]1C[C@](O)(c2ccc(Cl)cc2)CCN1Cc1ccc2c(c1)n(C)c(=O)n2C [Compound 6]
Second: C[C@H]1C[C@@](O)(c2ccc(Cl)cc2)CCN1Cc1ccc2c(c1)n(C)c(=O)n2C [Compound 7]
The IC50 of the first is higher: 500 to 5000 nM for the first, at most 100 nM for the second. The second is the more potent here.

`C[C@H]1C[C@@](O)(c2cc(F)cc(Cl)c2)CCN1Cc1ccc2c(c1)n(C)c(=O)n2C` [Compound 8] and `Cc1cc(C)cc([C@@]2(O)CCN(Cc3ccc4c(c3)n(C)c(=O)n4C)[C@@H](C)C2)c1` [Compound 15] cannot be ordered by IC50: at most 100 nM for the first, at most 100 nM for the second.

`C[C@H]1C[C@@](O)(c2ccc(Cl)c(Cl)c2)CCN1Cc1ccc2c(c1)n(C)c(=O)n2C` [Compound 9] and `C[C@@H]1C[C@](O)(c2ccc(Cl)c(Cl)c2)CCN1Cc1ccc2c(c1)n(C)c(=O)n2C` [Compound 12] cannot be ordered by IC50: at most 100 nM for the first, 100 to 500 nM for the second.

`C[C@@H]1C[C@](O)(c2ccc(Cl)cc2)CCN1Cc1ccc2c(c1)n(C)c(=O)n2C` [Compound 10] and `C[C@H]1C[C@@](O)(c2cccc(C3CC3)c2)CCN1Cc1ccc2c(c1)n(C)c(=O)n2C` [Compound 13] cannot be ordered by IC50: at most 100 nM for the first, at most 100 nM for the second.

Compared with `C[C@H]1C[C@@](O)(c2ccc3c(c2)CCO3)CCN1Cc1ccc2c(c1)n(C)c(=O)n2C` [Compound 14], `C[C@H]1C[C@@](O)(c2cccc(Cl)c2)CCN1Cc1ccc(C(N)=O)cc1` [Compound 24] is lower in IC50: 500 to 5000 nM for the first, 100 to 500 nM for the second. The second is the more potent here.

Compared with `C[C@H]1C[C@@](O)(c2cccc(Cl)c2)CCN1Cc1cnn(C2CCS(=O)(=O)C2)c1` (stereo partly drawn) [Compound 16, (2S,4R)-4-(3-chlorophenyl)-1-[[1-(1,1-dioxothiolan-3-yl)pyrazol-4-yl]methyl]-2-methyl-piperidin-4-ol], `CC(C)n1cc(CN2CC[C@](O)(c3cccc(Cl)c3)C[C@@H]2C)cn1` [Compound 17] is higher in IC50: 100 to 500 nM for the first, 500 to 5000 nM for the second.

`Cc1ccc(CN2CC[C@](O)(c3cccc(Cl)c3)C[C@@H]2C)nn1` [Compound 18] and `Cc1nc(CN2CC[C@](O)(c3cccc(Cl)c3)C[C@@H]2C)co1` [Compound 25] fall in the same range of IC50: 500 to 5000 nM for the first, 500 to 5000 nM for the second.

`Cc1ncc(CN2CC[C@](O)(c3cccc(Cl)c3)C[C@@H]2C)cn1` [Compound 19] and `C[C@H]1C[C@@](O)(c2cccc(Cl)c2)CCN1Cc1ncco1` [Compound 22] fall in the same range of IC50: 500 to 5000 nM for the first, 500 to 5000 nM for the second.

`C[C@H]1C[C@@](O)(c2cccc(Cl)c2)CCN1Cc1cnn(CC(=O)N(C)C)c1` [Compound 20] and `C[C@H]1C[C@@](O)(c2cccc(Cl)c2)CCN1Cc1cnn(CCS(C)(=O)=O)c1` [Compound 21] cannot be ordered by IC50: 100 to 500 nM for the first, at most 100 nM for the second.

First: C[C@H]1C[C@@](O)(c2cccc(Cl)c2)CCN1Cc1cnn(-c2ccccn2)c1 [Compound 23]
Second: Cc1nc(CN2CC[C@](O)(c3cccc(Cl)c3)C[C@@H]2C)c[nH]1 [Compound 26]
The IC50 of the first is lower: at most 100 nM for the first, 500 to 5000 nM for the second. The first is the more potent here.
